Values joined by “and” are separate entries in the source; they are usually repeats but may differ in a detail not shown here. Equal entries are not always repeated.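 Step 1: Grow cells in 96-well plates. Step 2: Expose to compound for 48 hours at 5 concentrations. Step 3: Interpolate endpoints linearly; if unreached, use highest concentration. GI50 marks 50% less growth. TGI: total growth inhibition.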
Assays:
Assay in all cases: NCI anticancer screen, dose series, 48 h
UACC-257 melanoma = test system: UACC-257 melanoma
SNB-75 CNS = test system: SNB-75 CNS
MDA-MB-435 = test system: MDA-MB-435
SK-MEL-5 melanoma = test system: SK-MEL-5 melanoma
MCF7 breast = test system: MCF7 breast
HT29 colon = test system: HT29 colon
HS 578T breast = test system: HS 578T breast
CCRF-CEM leukemia = test system: CCRF-CEM leukemia
MALME-3M melanoma = test system: MALME-3M melanoma
T-47D breast = test system: T-47D breast

CC(C)(C)OC(=O)NCCCCCCCCCn1c2c(c3ccccc3c1=O)C(=O)c1ccccc1-2
GI50 (UACC-257 melanoma): > 100000 nM
TGI (UACC-257 melanoma): > 100 µM
GI50 (SNB-75 CNS): 11200 nM
TGI (SNB-75 CNS): 36.8 µM
GI50 (MDA-MB-435): > 100000 nM
TGI (MDA-MB-435): > 100 µM
GI50 (SK-MEL-5 melanoma): > 100000 nM
TGI (SK-MEL-5 melanoma): > 100 µM
GI50 (MCF7 breast): 90000 nM
TGI (MCF7 breast): > 100 µM
GI50 (HT29 colon): > 100 µM
TGI (HT29 colon): > 100 µM
GI50 (HS 578T breast): 14200 nM
TGI (HS 578T breast): 43.6 µM
GI50 (CCRF-CEM leukemia): > 100000 nM
TGI (CCRF-CEM leukemia): > 100 µM
GI50 (MALME-3M melanoma): 13900 nM
TGI (MALME-3M melanoma): 43 µM
GI50 (T-47D breast): 78.9 µM
TGI (T-47D breast): > 100 µM

CN(C)S(=O)(=O)c1cccc(C(=O)Nc2nc(-c3ccc(F)c(F)c3)cs2)c1
GI50 (UACC-257 melanoma): 6240 nM
TGI (UACC-257 melanoma): > 100 µM
GI50 (SNB-75 CNS): 4960 nM
TGI (SNB-75 CNS): > 60.8 µM
GI50 (MDA-MB-435): 5410 nM
TGI (MDA-MB-435): > 100 µM
GI50 (SK-MEL-5 melanoma): 3810 nM
TGI (SK-MEL-5 melanoma): > 25.2 µM
GI50 (MCF7 breast): 6010 nM
TGI (MCF7 breast): > 65 µM
GI50 (HT29 colon): 14 µM
TGI (HT29 colon): > 100 µM
GI50 (HS 578T breast): 14200 nM
TGI (HS 578T breast): 91 µM
GI50 (CCRF-CEM leukemia): 10700 nM
TGI (CCRF-CEM leukemia): > 100 µM
GI50 (MALME-3M melanoma): 18600 nM
TGI (MALME-3M melanoma): 99.4 µM
GI50 (T-47D breast): 3.77 µM
TGI (T-47D breast): > 100 µM

O=NNc1ccc(-c2ccccc2)cn1
TGI (UACC-257 melanoma): > 90.6 µM
TGI (SNB-75 CNS): 29.3 µM
TGI (MDA-MB-435): 30.9 µM
TGI (SK-MEL-5 melanoma): 31.7 µM
TGI (MCF7 breast): > 23.6 µM
TGI (HT29 colon): 99.6 µM
TGI (HS 578T breast): > 58.9 µM
TGI (CCRF-CEM leukemia): > 100 µM
TGI (MALME-3M melanoma): 49.8 µM
TGI (T-47D breast): > 77.9 µM

CN1CCN(C2=C(Cl)C(=O)c3ccccc3C2=O)CC1
GI50 (UACC-257 melanoma): 1730 nM
TGI (UACC-257 melanoma): 3.2 µM
GI50 (SNB-75 CNS): 1910 nM
TGI (SNB-75 CNS): 4.91 µM
GI50 (MDA-MB-435): 1950 nM
TGI (MDA-MB-435): 3.6 µM
GI50 (SK-MEL-5 melanoma): 1550 nM
TGI (SK-MEL-5 melanoma): 2.93 µM
GI50 (MCF7 breast): 1450 nM
TGI (MCF7 breast): 3.16 µM
GI50 (HT29 colon): 1.94 µM
TGI (HT29 colon): 3.7 µM
GI50 (HS 578T breast): 1840 nM
TGI (HS 578T breast): 4.84 µM
GI50 (CCRF-CEM leukemia): 2450 nM
TGI (CCRF-CEM leukemia): 7.96 µM
GI50 (MALME-3M melanoma): 1810 nM
TGI (MALME-3M melanoma): 3.51 µM
GI50 (T-47D breast): 0.789 µM
TGI (T-47D breast): 2.73 µM

O=C(O)CCCN1C(=O)/C(=C/C(Cl)=C/c2ccccc2)SC1=S
GI50 (UACC-257 melanoma): 1750 nM
TGI (UACC-257 melanoma): 6.8 µM
GI50 (SNB-75 CNS): 1230 nM
TGI (SNB-75 CNS): 4.33 µM
GI50 (MDA-MB-435): 1940 nM
TGI (MDA-MB-435): 5.96 µM
GI50 (SK-MEL-5 melanoma): 1720 nM
TGI (SK-MEL-5 melanoma): 3.16 µM
GI50 (MCF7 breast): 600 nM
TGI (MCF7 breast): 11.4 µM
GI50 (HT29 colon): 2.85 µM
TGI (HT29 colon): 10.6 µM
GI50 (HS 578T breast): 2730 nM
TGI (HS 578T breast): 10.6 µM
GI50 (CCRF-CEM leukemia): 786 nM
TGI (CCRF-CEM leukemia): 10.2 µM
GI50 (MALME-3M melanoma): 2090 nM
TGI (MALME-3M melanoma): 5.24 µM
GI50 (T-47D breast): 1.89 µM
TGI (T-47D breast): 5.38 µM

OCc1c(-c2cccs2)oc(-c2cccs2)c1CO
GI50 (UACC-257 melanoma): 56100 nM
TGI (UACC-257 melanoma): > 100 µM
GI50 (SNB-75 CNS): 69400 nM
TGI (SNB-75 CNS): > 100 µM
GI50 (MDA-MB-435): 46900 nM
TGI (MDA-MB-435): > 100 µM
GI50 (SK-MEL-5 melanoma): 39000 nM
TGI (SK-MEL-5 melanoma): > 100 µM
GI50 (MCF7 breast): 1620 nM
TGI (MCF7 breast): > 100 µM
GI50 (HT29 colon): 41 µM
TGI (HT29 colon): > 100 µM
GI50 (HS 578T breast): 44200 nM
TGI (HS 578T breast): > 100 µM
GI50 (CCRF-CEM leukemia): 48700 nM
TGI (CCRF-CEM leukemia): > 100 µM
GI50 (MALME-3M melanoma): 30100 nM
TGI (MALME-3M melanoma): 94.6 µM
GI50 (T-47D breast): 17.3 µM
TGI (T-47D breast): > 100 µM

NC(CSC(c1ccccc1)(c1ccccc1)c1ccccc1)C(=O)O (stereo not given)
GI50 (UACC-257 melanoma): 1180 nM and 789 nM
TGI (UACC-257 melanoma): 53.8 µM and 94.6 µM and > 100 µM
GI50 (SNB-75 CNS): 2340 nM
TGI (SNB-75 CNS): 9.45 µM and 50.6 µM and 29.2 µM
GI50 (MDA-MB-435): 275 nM
TGI (MDA-MB-435): 0.648 µM and 0.791 µM
GI50 (SK-MEL-5 melanoma): 601 nM and 410 nM
TGI (SK-MEL-5 melanoma): 51.1 µM and 42.5 µM
GI50 (MCF7 breast): 665 nM and 416 nM
TGI (MCF7 breast): 67.8 µM and > 100 µM
GI50 (HT29 colon): 3.71 µM and 3.28 µM
TGI (HT29 colon): 27.3 µM and 14.6 µM
GI50 (HS 578T breast): 723 nM
TGI (HS 578T breast): 21 µM and 32.4 µM
GI50 (CCRF-CEM leukemia): 1590 nM and 942 nM
TGI (CCRF-CEM leukemia): 19.4 µM and > 100 µM
GI50 (MALME-3M melanoma): 1330 nM and 5620 nM
TGI (MALME-3M melanoma): 49.2 µM and 39.2 µM and > 100 µM
GI50 (T-47D breast): 3.46 µM
TGI (T-47D breast): 54.9 µM and 53.4 µM

O=C1c2ccccc2C(=O)c2c1ccc1conc21
TGI (UACC-257 melanoma): 4.37 µM
TGI (SNB-75 CNS): 20.5 µM
TGI (MDA-MB-435): 1.37 µM
TGI (SK-MEL-5 melanoma): 4.83 µM
TGI (MCF7 breast): 2.65 µM
TGI (HT29 colon): 13 µM
TGI (HS 578T breast): 38.6 µM
TGI (CCRF-CEM leukemia): 71.1 µM
TGI (MALME-3M melanoma): 4.75 µM
TGI (T-47D breast): 2.02 µM

COc1ccc(-n2nc(C)c3c(Nc4ccc(NC(=O)Nc5cccc(C(F)(F)F)c5)cc4)ncnc32)cc1
GI50 (UACC-257 melanoma): 1880 nM
TGI (UACC-257 melanoma): 4.18 µM
GI50 (SNB-75 CNS): 870 nM
TGI (SNB-75 CNS): 3.03 µM
GI50 (MDA-MB-435): 1800 nM
TGI (MDA-MB-435): 3.78 µM
GI50 (SK-MEL-5 melanoma): 1750 nM
TGI (SK-MEL-5 melanoma): 3.21 µM
GI50 (MCF7 breast): 2050 nM
TGI (MCF7 breast): 5.57 µM
GI50 (HT29 colon): 1.77 µM
TGI (HT29 colon): 3.96 µM
GI50 (HS 578T breast): 1660 nM
TGI (HS 578T breast): 4.17 µM
GI50 (CCRF-CEM leukemia): 2300 nM
TGI (CCRF-CEM leukemia): 8.76 µM
GI50 (MALME-3M melanoma): 1590 nM
TGI (MALME-3M melanoma): 3.31 µM
GI50 (T-47D breast): 1.64 µM
TGI (T-47D breast): 4.84 µM

O=C(CCN1CCCC1)Nc1ccc2c(Nc3ccc(F)cc3)c3ccccc3nc2c1
GI50 (UACC-257 melanoma): 1970 nM
TGI (UACC-257 melanoma): 4.12 µM
GI50 (SNB-75 CNS): 1370 nM
TGI (SNB-75 CNS): 2.72 µM
GI50 (MDA-MB-435): 1580 nM
TGI (MDA-MB-435): 3 µM
GI50 (SK-MEL-5 melanoma): 1530 nM
TGI (SK-MEL-5 melanoma): 2.88 µM
GI50 (MCF7 breast): 147 nM
TGI (MCF7 breast): 1.89 µM
GI50 (HT29 colon): 0.734 µM
TGI (HT29 colon): 3.72 µM
GI50 (HS 578T breast): 1740 nM
TGI (HS 578T breast): 4.54 µM
GI50 (CCRF-CEM leukemia): 274 nM
TGI (CCRF-CEM leukemia): 11.1 µM
GI50 (MALME-3M melanoma): 1570 nM
TGI (MALME-3M melanoma): 2.99 µM
GI50 (T-47D breast): 1.01 µM
TGI (T-47D breast): 3.79 µM

COC(=O)CNC(=O)C(=O)c1c(O)c(O)c(C(C)C)c2cc(C)c(-c3c(C)cc4c(C(C)C)c(O)c(O)c(C(=O)C(=O)NCC(=O)OC)c4c3O)c(O)c12
GI50 (UACC-257 melanoma): 7890 nM
TGI (UACC-257 melanoma): 20.9 µM
GI50 (SNB-75 CNS): 1610 nM
TGI (SNB-75 CNS): 8.5 µM
GI50 (MDA-MB-435): 2460 nM
TGI (MDA-MB-435): 9.3 µM
GI50 (SK-MEL-5 melanoma): 4290 nM
TGI (SK-MEL-5 melanoma): 11.3 µM
GI50 (MCF7 breast): 1640 nM
TGI (MCF7 breast): 6.11 µM
GI50 (HT29 colon): 1.58 µM
TGI (HT29 colon): 5.36 µM
GI50 (HS 578T breast): 1830 nM
TGI (HS 578T breast): 8.58 µM
GI50 (CCRF-CEM leukemia): 2140 nM
TGI (CCRF-CEM leukemia): > 50 µM
GI50 (MALME-3M melanoma): 2230 nM
TGI (MALME-3M melanoma): 11 µM
GI50 (T-47D breast): 5.09 µM
TGI (T-47D breast): 40.9 µM

COc1ccc(C2=Nn3c(nnc3-c3ccc(F)c(Cl)c3)SC2)cc1
GI50 (UACC-257 melanoma): > 100000 nM
TGI (UACC-257 melanoma): > 100 µM
GI50 (SNB-75 CNS): 63300 nM
TGI (SNB-75 CNS): > 100 µM
GI50 (MDA-MB-435): > 100000 nM
TGI (MDA-MB-435): > 100 µM
GI50 (SK-MEL-5 melanoma): > 100000 nM
TGI (SK-MEL-5 melanoma): > 100 µM
GI50 (MCF7 breast): > 100000 nM
TGI (MCF7 breast): > 100 µM
GI50 (HT29 colon): > 100 µM
TGI (HT29 colon): > 100 µM
GI50 (HS 578T breast): > 100000 nM
TGI (HS 578T breast): > 100 µM
GI50 (CCRF-CEM leukemia): 57800 nM
TGI (CCRF-CEM leukemia): > 100 µM
GI50 (MALME-3M melanoma): > 100000 nM
TGI (MALME-3M melanoma): > 100 µM
GI50 (T-47D breast): > 100 µM
TGI (T-47D breast): > 100 µM

O=C1OC(c2ccc([N+](=O)[O-])cc2)=N/C1=C\c1ccc(Cl)cc1
TGI (UACC-257 melanoma): > 100 µM
TGI (SNB-75 CNS): > 100 µM
TGI (MDA-MB-435): > 100 µM
TGI (SK-MEL-5 melanoma): > 100 µM
TGI (MCF7 breast): > 100 µM
TGI (HT29 colon): > 100 µM
TGI (HS 578T breast): > 100 µM
TGI (CCRF-CEM leukemia): > 100 µM
TGI (MALME-3M melanoma): > 100 µM
TGI (T-47D breast): > 100 µM
